Measured values taken from patent publication US9725445B2, “Cycloalkyl nitrile pyrazolo pyridones as Janus kinase inhibitors” (Merck Sharp & Dohme Corp., priority 2013, dated 2017).
pIC50: −log10 of the molar value.

Legend:
JAK1 = JAK1 (Homo sapiens (Human), UniProt P23458); assay: Jak biochemical HTRF assay, JAK1; conditions: HTRF biochemical assay, recombinant GST-tagged catalytic domain; read-out: JAK1 IC50
JAK2 = JAK2 (Homo sapiens (Human), UniProt O60674); assay: Jak biochemical HTRF assay, JAK2; conditions: HTRF biochemical assay, recombinant GST-tagged catalytic domain; read-out: JAK2 IC50
Sequence of JAK2 (O60674 849-1124): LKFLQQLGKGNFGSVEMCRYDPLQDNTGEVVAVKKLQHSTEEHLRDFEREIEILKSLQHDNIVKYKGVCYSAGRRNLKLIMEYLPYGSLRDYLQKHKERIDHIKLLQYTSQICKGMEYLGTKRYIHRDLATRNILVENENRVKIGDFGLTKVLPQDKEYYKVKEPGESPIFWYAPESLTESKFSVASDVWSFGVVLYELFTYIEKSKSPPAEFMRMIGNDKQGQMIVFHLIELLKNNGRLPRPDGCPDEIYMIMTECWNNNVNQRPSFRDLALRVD

Sequence of JAK1 (P23458 875-1153): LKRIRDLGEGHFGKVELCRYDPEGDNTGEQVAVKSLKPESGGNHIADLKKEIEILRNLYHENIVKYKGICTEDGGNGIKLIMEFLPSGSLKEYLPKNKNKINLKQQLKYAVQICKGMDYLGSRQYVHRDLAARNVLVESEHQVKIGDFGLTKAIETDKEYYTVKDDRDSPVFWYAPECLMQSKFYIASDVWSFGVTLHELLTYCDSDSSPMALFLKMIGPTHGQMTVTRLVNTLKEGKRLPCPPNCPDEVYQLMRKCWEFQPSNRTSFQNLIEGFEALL

SMILES | pIC50 (JAK1) | pIC50 (JAK2)
CC(C)(C)OC(=O)CN1Cc2cc(Nc3nn([C@H]4CCCC[C@@H]4C#N)c4cc[nH]c(=O)c34)ccc2S1(=O)=O [Example 3-151, tert-butyl [5-({1-[(1S,2S)-2-cyanocyclohexyl]-4-oxo-4,5-dihydro-1H-pyrazolo[4,3-c]pyridin-3-yl}amino)-1,1-dioxido-1,2-benzisothiazol-2(3H)-yl]acetate] | 10.39 | 9.28
N#C[C@H]1CCCC[C@@H]1n1nc(Nc2cccc(Cn3ccnc3)c2)c2c(=O)[nH]ccc21 [Example 3-47, (1S,2S)-2-(3-{[3-(1H-imidazol-1-ylmethyl)phenyl]amino}-4-oxo-4,5-dihydro-1H-pyrazolo[4,3-c]pyridin-1-yl)cyclohexanecarbonitrile] | 9.11 | 8.66
N#C[C@H]1CCCC[C@@H]1n1nc(Nc2ccc(C3(O)COC3)cc2)c2c(=O)[nH]ccc21 [Example 15-9, (1S,2S)-2-(3-{[4-(3-hydroxyoxetan-3-yl)phenyl]amino}-4-oxo-4,5-dihydro-1H-pyrazolo[4,3-c]pyridin-1-yl)cyclohexanecarbonitrile] | 9.49 | 8.96
CC(C)(C)NS(=O)(=O)c1ccc(Nc2nn([C@H]3CCC[C@@H]3C#N)c3cc[nH]c(=O)c23)cc1 [Example 3-107, N-tert-butyl-4-({1-[(1S,2S)-2-cyanocyclopentyl]-4-oxo-4,5-dihydro-1H-pyrazolo[4,3-c]pyridin-3-yl}amino)benzenesulfonamide] | 9.66 | 9.32
N#C[C@H]1CCCC[C@@H]1n1nc(Nc2ccc(C3CCCN3)cc2)c2c(=O)[nH]ccc21 (single isomer, unassigned) [Example 3-72, (1S,2S)-2-[4-oxo-3-({4-[(2R or 2S)-pyrrolidin-2-yl]phenyl}amino)-4,5-dihydro-1H-pyrazolo[4,3-c]pyridin-1-yl]cyclohexanecarbonitrile] | 9.35 | 9.30
CC(C)C(c1ccc(Nc2nn([C@H]3CCCC[C@@H]3C#N)c3cc[nH]c(=O)c23)cc1)n1cc(C(=O)OC(C)(C)C)nn1 (single isomer, unassigned) [Example 15-57, tert-butyl 1-{(1S or 1R)-1-[4-({1-[(1S,2S)-2-cyanocyclohexyl]-4-oxo-4,5-dihydro-1H-pyrazolo[4,3-c]pyridin-3-yl}amino)phenyl]-2-methylpropyl}-1H-1,2,3-triazole-4-carboxylate] | 9.21 | 8.92
Cc1nc2ccc(Nc3nn([C@H]4CCCC[C@@H]4C#N)c4cc[nH]c(=O)c34)cc2s1 [Example 15-10, (1S,2S)-2-{3-[(2-methyl-1,3-benzothiazol-6-yl)amino]-4-oxo-4,5-dihydro-1H-pyrazolo[4,3-c]pyridin-1-yl}cyclohexanecarbonitrile] | 10.04 | 8.80
CC(C)(c1ccc(Nc2nn([C@H]3CCCC[C@@H]3C#N)c3cc[nH]c(=O)c23)cc1)n1ccnn1 [Example 3-147, (1S,2S)-2-[3-({4-[1-methyl-1-(1H-1,2,3-triazol-1-yl)ethyl]phenyl}amino)-4-oxo-4,5-dihydro-1H-pyrazolo[4,3-c]pyridin-1-yl]cyclohexanecarbonitrile] | 9.77 | 9.30
N#C[C@@H]1CCC[C@H]1n1nc(Nc2ccnc(F)c2)c2c(=O)[nH]ccc21 [Example 3-93, (1R,2R)-2-{3-[(2-fluoropyridin-4-yl)amino]-4-oxo-4,5-dihydro-1H-pyrazolo[4,3-c]pyridin-1-yl}cyclopentanecarbonitrile] | 7.92 | 7.32
CC(C)(C)[S@@+]([O-])N[C@@H](c1cccc(Nc2nn([C@H]3CCCC[C@@H]3C#N)c3cc[nH]c(=O)c23)c1)C(F)(F)F [Example 3-41, N-{(1S)-1-[3-({1-[(1S,2S)-2-cyanocyclohexyl]-4-oxo-4,5-dihydro-1H-pyrazolo[4,3-c]pyridin-3-yl}amino)phenyl]-2,2,2-trifluoroethyl}-2-methylpropane-2-sulfinamide] | 8.80 | 7.54
